{
  "source": "patent US8404646B2",
  "about": "“Methods for preventing or treating mitochondrial permeability transition” (Cornell Research Foundation, Inc., priority 2003, dated 2013)",
  "key": {"[1]": {"system": "isolated perfused guinea pig heart", "experiment": "Ischemia-reperfusion myocardial stunning in isolated perfused heart (Langendorff)", "details": "100 nM, 30 min global ischemia", "procedure": "Guinea pig hearts were rapidly isolated, and the aorta was cannulated in situ and perfused in a retrograde fashion with an oxygenated Krebs-Henseleit solution (pH 7.4) at 34° C. The heart was then excised, mounted on a modified Langendorff perfusion apparatus, and perfused at constant pressure (40 cm H2O). Contractile force was measured with a small hook inserted into the apex of the left ventricle and the silk ligature tightly connected to a force-displacement transducer. Coronary flow was measured by timed collection of pulmonary artery effluent.\nReperfusion was carried out with the same solution used prior to ischemia."}, "[2]": {"system": "several mammalian cell types", "details": "energy-independent manner; cited from earlier work"}, "[3]": {"system": "isolated mitochondria", "experiment": "Cytochrome c release from isolated mitochondria (ELISA)", "assay_type": "biochemical, mouse", "details": "Ca2+ overload", "procedure": "(§1) MPT pore opening results in mitochondrial swelling. We examined the effects of [Dmt^1]DALDA on mitochondrial swelling by measuring reduction in absorbance at 540 nm (A540). The mitochondrial suspension was then centrifuged and cytochrome c in the mitochondrial pellet and supernatant determined by a commercially-available ELISA kit.\n(§2) The methods for study are as described above for SS-02. In this example, mitochondrial swelling was measured using light scattering monitored at 570 nm."}, "[4]": {"system": "isolated guinea pig hearts", "experiment": "Organ preservation: peptide in cardioplegic solution, prolonged ischemia of isolated heart", "details": "in St. Thomas cardioplegic solution 3 min, 90 min ischemia, 60 min reperfusion; listed as [Dmt^1]DALDA", "procedure": "We examined whether [Dmt^1]DALDA prolongs survival of organs. In this study, [Dmt^1]DALDA was added to a commonly used cardioplegic solution (St. Thomas) to determine whether [[Dmt^1]DALDA enhances survival of the heart after prolonged ischemia (model of ex vivo organ survival).\nIsolated guinea pig hearts were perfused in a retrograde fashion with an oxygenated Krebs-Henseleit solution at 34° C. After 30 min. of stabilization, the hearts were perfused with a cardioplegic solution CPS (St. Tohomas) with or without [Dmt^1]DALDA at 100 nM for 3 min. Global ischemia was then induced by complete interruption of coronary perfusion for 90 min. Reperfusion was subsequently carried out for 60 min. with oxygenated Krebs-Henseleit solution. Contractile force, heart rate and coronary flow were monitored continuously throughout the experiment."}, "[5]": {"system": "SH-SY5Y", "experiment": "Cellular uptake of [3H][Dmt1]DALDA, confirmation", "assay_type": "cell-based, human", "procedure": "(§3) The cellular uptake of [^3H][Dmt^1]DALDA was studied using a human intestinal epithelial cell line (Caco-2), and confirmed with SH-SY5Y (human neuroblastoma cell), HEK293 (human embryonic kidney cell) and CRFK cells (kidney epithelial cell). Monolayers of cells were grown on 12-well plates (5×10^5 cells/well) coated with collagen for 3 days. On day 4, cells were washed twice with pre-wanned HBSS, and then incubated with 0.2 ml of HBSS containing either 250 nM [^3H][Dmt^1]DALDA at 37° C. or 4° C. for various times up to 1 h."}, "[6]": {"system": "HEK293", "experiment": "Cellular uptake of [3H][Dmt1]DALDA, confirmation", "assay_type": "cell-based, human", "procedure": "as §3"}, "[7]": {"experiment": "Estimated concentration in isolated perfused guinea pig hearts", "details": "coronary perfusate 0.1 μM"}, "[8]": {"system": "Caco-2 cells", "experiment": "3NP-induced mitochondrial depolarization in cells (TMRM, LSCM)", "assay_type": "cell-based, human", "details": "3NP 10 mM, peptide 0.1 μM, 4 h", "source_text": "In control cells, the mitochondria are clearly visualized as fine streaks throughout the cytoplasm."}, "[9]": {"system": "CRFK cells", "experiment": "Cellular uptake of [3H][Dmt1]DALDA, confirmation", "assay_type": "cell-based", "procedure": "as §3"}, "[10]": {"system": "isolated mitochondria", "experiment": "Mitochondrial swelling (absorbance 540 nm or light scattering 570 nm)", "assay_type": "biochemical, mouse", "procedure": "as §1, §2"}, "[11]": {"system": "mitochondrial permeability transition (MPT) in isolated mitochondria", "experiment": "Mitochondrial membrane potential and MPT measured with TMRM", "assay_type": "biochemical, mouse", "details": "for mitochondrial potential / MPT on addition of peptide alone: 200 μM, TMRM; for tolerance of mitochondria to cumulative Ca2+ additions prior to MPT: 50 and 100 μM", "procedure": "In addition to having no direct effect on mitochondrial potential, [Dmt^1]DALDA was able to protect against MPT induced by Ca^2+ overload.\n3-Nitropropionic acid (3NP) is an irreversible inhibitor of succinate dehydrogenase in complex II of the electron transport chain. Addition of 3NP (1 mM) to isolated mitochondria caused dissipation of mitochondrial potential and onset of MPT (FIG. 2C)."}, "[12]": {"system": "isolated mouse liver mitochondria", "experiment": "Uptake into isolated mitochondria (fluorescence quenching, radioactivity in pellet)", "assay_type": "in vitro ADME", "procedure": "(FIG. 1A) Mitochondrial uptake of SS-19 was determined using fluorescence spectrophotometry (ex/em=320/420 nm). […] Pretreatment of mitochondria with FCCP (1.5 μM) reduced quenching by <20% (black line). […] Uptake was stopped by centrifugation (16000×g) for 5 min at 4° C., and radioactivity determined in the pellet. […] Data are shown as mean±s.e.; n=3. *, P<0.05 by Student's t-test. […] Black line, TMRM; red line, SS-19.\nTo isolate mitochondria from mouse liver, mice were sacrificed by decapitation. The liver was removed and rapidly placed into chilled liver homogenization medium. The liver was finely minced using scissors and then homogenized by hand using a glass homogenizer.\nThe homogenate was centrifuged for 10 min at 1000×g at 4° C. The supernatant was aspirated and transferred to polycarbonate tubes and centrifuged again for 10 min. at 3000×g, 4° C. The resulting supernatant was removed, and the fatty lipids on the side-wall of the tube were carefully wiped off.\nThe pellet was resuspended in liver homogenate medium and the homogenization repeated twice. The final purified mitochondrial pellet was resuspended in medium. Protein concentration in the mitochondrial preparation was determined by the Bradford procedure.\nApproximately 1.5 mg mitochondria in 400 μl buffer was incubated with [^3H][Dmt^1]DALDA for 5-30 min at 37° C. The mitochondria were then centrifuged down and the amount of radioactivity determined in the mitochondrial fraction and buffer fraction. […] Thus [Dmt^1]DALDA is concentrated in mitochondria.\nThus uptake of [Dmt^1, AtnDap^4]DALDA was not potential-dependent.\nTo confirm that the mitochondrial targeting was not an artifact of the fluorophore, we also examined mitochondrial uptake of [^3H][Dmt^1]DALDA. Isolated mitochondria were incubated with [^3H][Dmt^1]DALDA and radioactivity determined in the mitochondrial pellet and supernatant.\nWe next examined the effect of mitochondrial swelling on the accumulation of [Dmt^1, AtnDap^4]DALDA in mitochondria by using alamethicin to induce swelling and rupture of the outer membrane. […] Thus, [Dmt^1]DALDA is associated with mitochondrial membranes."}, "[13]": {"system": "isolated mouse liver mitochondria", "experiment": "Mitochondrial respiration (oxygen consumption)", "assay_type": "biochemical", "details": "100 μM"}, "[14]": {"system": "Caco-2", "experiment": "Cellular uptake of [3H][Dmt1]DALDA into cell monolayers", "assay_type": "cell-based, human", "procedure": "as §3\nIn a separate experiment, cells were incubated with a range of [Dmt^1]DALDA concentrations (1 μM-3 mM) for 1 h at 37° C. At the end of the incubation period, cells were washed 4 times with HBSS, and 0.2 ml of 0.1N NaOH with 1% SDS was added to each well. The cell contents were then transferred to scintillation vials and radioactivity counted. To distinguish between internalized radioactivity from surface-associated radioactivity, an acid-wash step was included. Prior to cell lysis, cells were incubated with 0.2 ml of 0.2 M acetic acid/0.05 M NaCl for 5 min on ice."}},
  "note": "Entries after “also recorded” stand apart in the source; their conditions may differ.",
  "data": [
    {"substance": "2′,6′-dimethyltyrosine-D-Arg-Phe-Lys-NH2 [SS-02]", "values": [
      {"measurement": "myocardial contractile force during ischemia-reperfusion", "setting": "[1]", "value": "tolerated ischemia much better than buffer-treated hearts; also recorded: protects myocardial contractile force"},
      {"measurement": "penetration of the plasma membrane", "setting": "[2]", "value": "readily penetrates the plasma membrane"},
      {"measurement": "Ca2+-induced release of cytochrome c", "setting": "[3]", "value": "inhibited"},
      {"measurement": "contractile function after prolonged ischemia", "setting": "[4]", "value": "significantly enhanced; also recorded: significantly improved"},
      {"measurement": "internalization", "setting": "[5]", "value": "observed"},
      {"measurement": "internalization", "setting": "[6]", "value": "observed"},
      {"measurement": "Concentration of [Dmt1]DALDA in mitochondria", "setting": "[7]", "value": 1000, "unit": "µM"},
      {"measurement": "Concentration of [Dmt1]DALDA in myocyte", "setting": "[7]", "value": 5, "unit": "µM"},
      {"measurement": "mitochondrial depolarization caused by 3NP in cells", "setting": "[8]", "value": "protected against mitochondrial depolarization"},
      {"measurement": "internalization", "setting": "[9]", "value": "observed"},
      {"measurement": "mitochondrial swelling induced by Ca2+", "setting": "[10]; 200 μM Ca2+, absorbance at 540 nm", "value": "inhibited swelling; also recorded: dose dependently inhibited"},
      {"measurement": "mitochondrial swelling induced by MPP+", "setting": "[10]; MPP+ 300 μM", "value": "prevented mitochondrial swelling; also recorded: inhibited mitochondrial swelling"},
      {"measurement": "mitochondrial potential / MPT on addition of peptide alone", "setting": "[11]", "value": "did not alter mitochondrial potential"},
      {"measurement": "mitochondrial potential / MPT on addition of peptide alone", "setting": "[11]; listed as [Dmt^1]DALDA", "value": "did not cause mitochondrial depolarization or MPT"},
      {"measurement": "onset of MPT induced by 3NP", "setting": "[11]; 1 mM 3NP, 0.5, 5, 50 μM peptide", "value": "dose-dependently delayed"},
      {"measurement": "tolerance of mitochondria to cumulative Ca2+ additions prior to MPT", "setting": "[11]", "value": "increased mitochondrial tolerance"},
      {"measurement": "tolerance of mitochondria to cumulative Ca2+ additions prior to MPT", "setting": "[11]; listed as [Dmt^1]DALDA", "value": "dose-dependently increased"},
      {"measurement": "MPT induced by Ca2+ overload", "setting": "[11]; pretreatment 10 μM", "value": "prevented onset of MPT"},
      {"measurement": "decrease of radioactivity associated with mitochondrial pellet by FCCP", "setting": "[12]; 37° C., 2 min", "value": "~20", "unit": "%"},
      {"measurement": "amount of radioactivity in the pellet over time", "setting": "[12]; from 2 min to 8 min", "value": "did not change"},
      {"measurement": "oxygen consumption during state 3 or state 4", "setting": "[13]", "value": "did not alter"},
      {"measurement": "time at which [3H][Dmt1]DALDA was first observed in cell lysate", "setting": "[14]; 250 nM, Caco-2", "value": 5, "unit": "min"},
      {"measurement": "time to steady state levels in cell lysate", "setting": "[14]; 250 nM, Caco-2", "value": "≤ 30", "unit": "min"},
      {"measurement": "total amount recovered in the cell lysate, of the total drug", "setting": "[14]; after 1 h incubation", "value": "about 1%"},
      {"measurement": "uptake at 4° C. compared to 37° C.", "setting": "[14]; by 45 min", "value": 76.5, "unit": "%"},
      {"measurement": "uptake at 4° C. compared to 37° C.", "setting": "[14]; by 1 h", "value": 86.3, "unit": "%"}
    ]}
  ]
}
